For 21 molecules, melting point and IC50 results are on record in patent US12102658B2, “Tripeptide propylene oxide derivative and preparation method and application thereof” (SHENZHEN JIKANG PHARMACEUTICAL TECHNOLOGY CO., LTD, priority 2019, dated 2024).

In series [1] the test system is U266B1. Put plainly: Cell strain inhibition activity (Promega single solution cell proliferation test kit), U266. Type of series: cell-based. As to conditions: Homo sapiens, U-266; U266B1 cells, 24 h incubation with drug; read-out: IC50 concentration (nM) of the drugs to cytotoxicity, U266B1. The method, then: (§1) The test solution used in the present invention is a single solution cell proliferation test kit from Promega company; and the cells used are U266 and RPMI8226. The experimental system is 110 μL, containing 90 μL of cell suspension, 10 μL of test solution, and 10 μL of drug (inhibitor). The final concentration is 4.54×10^−8 M-1.77×10^−9 M, the last concentration is 0 M, the actual preparation concentration is 5×10^−7 M-1.95×10^−8 M, and the last concentration is 0 M. The specific experiment process is as follows:
(§2) After the cells are counted separately, dilution and preparation are performed so that the number of U266 is 1×10^4 cells/well, and the number of RPMI8226 is 1×10^4 cells/well.
(§3) 90 μL of cell suspension is added to each well of a 96-well fluorescence microplate, and incubated for 24 h. […] After the reaction is complete, 10 μL of test solution is added to each well and incubation is performed for 2-3 h. The absorbance is tested with a 490 nm fluorescence microplate reader (BMG LABTECH POLARstar OPTIMA Microplate Reader).
(§4) The absorbances of the products obtained under the action of the drugs of different concentrations after subtracting the substrate are calculated. The IC50 concentration (nM) of the drugs to cytotoxicity is calculated by the GraphPad Prism software.

The test system of series [2] is RPMI8226. Put plainly: Cell strain inhibition activity (Promega single solution cell proliferation test kit), RPMI8226. Type of series: cell-based. As to conditions: Homo sapiens, RPMI-8226; RPMI8226 cells, 24 h incubation with drug; read-out: IC50 concentration (nM) of the drugs to cytotoxicity, RPMI8226. Here is the method: as §1, §2, §3, §4
Series [3] has as its system CD138+ cells selected from the patients with multiple myeloma. Put plainly: Primary cytotoxicity, CD138+ cells from patients with multiple myeloma. Type of series: cell-based. As to conditions: Homo sapiens. The method, then:
(§5) In the present invention, blood cells from patients with multiple myeloma and blood cells from healthy volunteers are used to test the toxicity of candidate compounds. The test solution is a single solution cell proliferation test kit from Promega company. The cells used are CD138+ cells selected from the patients with multiple myeloma and monocytes from the blood of the healthy volunteers. The experimental system is 110 μL, containing 90 μL of cell suspension, 10 μL of test solution, and 10 μL of drug (inhibitor). The final concentration is 4.54×10^−8 M 1.77×10^−9 M, the last concentration is 0 M, the actual preparation concentration is 5×10^−7 M-1.95×10^−8 M, and the last concentration is 0 M. The specific experiment process is as follows:
(§6) After the cells are counted separately, dilution and preparation are performed so that the number of CD138+ cells is 1×10^4 cells/well, and the number of monocytes is 1×10^4 cells/well.
as §3, §4

Series [4] in a line: Primary cytotoxicity, monocytes from healthy volunteers. As to conditions: human, primary blood monocytes from a healthy volunteer, 24 h incubation with drug. Type of series: cell-based. The method, then:
as §5, §6, §3, §4

Series [5] addresses T1, human red blood cell 20S proteasome (Homo sapiens, UniProt P28074).
T1 construct: human red blood cell 20S proteasome; purchased Enzo; host or cells: purified from human red blood cells
Put plainly: Proteasome inhibition activity (chymotrypsin-like activity, Suc-LLVY-AMC fluorescent substrate). Type of series: biochemical. As to conditions: Suc-LLVY-AMC 50 μM, 37° C.
Description: The present invention uses a fluorescent polypeptide substrate Suc-Leu-Leu-Val-Tyr-AMC (abbreviated as Suc-LLVY-AMC, Suc stands for succinyl group, AMC stands for 7-amide-4-methylcoumarin) to determine the chymotrypsin-like enzyme activity of the proteasome.
The proteasome used in the present invention is human red blood cell 20S proteasome, and the enzymes, fluorescent substrates and test buffers are all purchased from Enzo company. […]
The 20S proteasome is diluted with a buffer solution to a concentration of 2 ng/μL from 8 ng/μL, and the diluted proteasome solution is added to a 384-well fluorescence microplate, 4 μL each. […] A 360 nm/460 nm fluorescence microplate reader (BMG LABTECH POLARstar OPTIMA Microplate Reader) is used to test the fluorescence value.
The fluorescence values of the products obtained under the action of the drugs of different concentrations after subtracting the substrate are calculated. The IC50 concentration of the drug to inhibit the proteasome is calculated by the GraphPad Prism software.

Setting [6] is: Patient 1, 24 h incubation with drug, read-out: IC50 concentration (nM) of the drugs to cytotoxicity, Patient 1.
Setting [7] is: Patient 2, 24 h incubation with drug, read-out: IC50 concentration (nM) of the drugs to cytotoxicity, Patient 2.
[8] abbreviates: Healthy volunteer 3 (first line, r4), read-out: IC50 concentration (nM) of the drugs to cytotoxicity, Healthy volunteer 3.
[9] abbreviates: Healthy volunteer 3 (second line, r5), read-out: IC50 concentration (nM) of the drugs to cytotoxicity, Healthy volunteer 3 (second line).

Molecules are shown by their SMILES. Like-named read-outs stand apart in the source and are kept apart here.

`COC[C@H](NC(=O)[C@@H](CSC)NC(=O)c1cc(Cl)ccc1Cl)C(=O)N[C@@H](CC(C)C)C(=O)[C@@]1(C)CO1` [Compound 36, N-2,5-dichlorophenyl-2-formyl-S-methyl-L-cysteinyl-O-methyl-L-seryl-L-leucyl-methyloxirane] had a melting point of 59.8 to 60.3 °C. `CSC[C@@H](NC(=O)c1cc(Cl)ccc1Cl)C(=O)N[C@H](CSC)C(=O)N[C@@H](Cc1ccccc1)C(=O)[C@@]1(C)CO1` [Compound 46, N-2,5-dichlorophenyl-2-formyl-S-methyl-L-cysteinyl-S-methyl-L-cysteinyl-L-phenylalanyl-methyloxirane]: the melting point is 150 to 151 °C. On to `COC[C@H](NC(=O)c1cnccn1)C(=O)N[C@H](CSC)C(=O)N[C@@H](CC(C)C)C(=O)[C@@]1(C)CO1` [Compound 32, N-pyrazinyl-2-formyl-O-methyl-L-seryl-S-methyl-L-cysteinyl-L-leucyl-methyloxirane], for which the melting point was in the range of 50 to 51 °C. Also, in series [1], the IC50 was determined as 13700 nM. Molecule `CSC[C@@H](NC(=O)c1cnc(C)s1)C(=O)N[C@H](CSC)C(=O)N[C@@H](CC(C)C)C(=O)[C@@]1(C)CO1` [Compound 45, N-2-methylthiazolyl-5-formyl-S-methyl-L-cysteinyl-S-methyl-L-cysteinyl-L-leucyl-methyloxirane] yielded a melting point of 150 to 151 °C.

In turn, `COC[C@H](NC(=O)c1cc(C)on1)C(=O)N[C@H](CSC)C(=O)N[C@@H](CC(C)C)C(=O)[C@@]1(C)CO1` [Compound 31, N-5-methylisoxazolyl-3-formyl-O-methyl-L-seryl-S-methyl-L-cysteinyl-L-leucyl-methyloxirane] displayed a melting point of 70.2 to 72.7 °C. On to `COC[C@H](NC(=O)c1cc(Cl)ccc1Cl)C(=O)N[C@H](CSC)C(=O)N[C@@H](Cc1ccccc1)C(=O)[C@@]1(C)CO1` [Compound 33, N-2,5-dichlorophenyl-2-formyl-O-methyl-L-seryl-S-methyl-L-cysteinyl-L-phenylalanyl-methyloxirane], for which the melting point is 50.7 to 52.3 °C. Consider `COC[C@H](NC(=O)[C@@H](CSC)NC(=O)c1cc(C)on1)C(=O)N[C@@H](CC(C)C)C(=O)[C@@]1(C)CO1` [Compound 37, N-5-methylisoxazolyl-3-formyl-S-methyl-L-cysteinyl-O-methyl-L-seryl-L-leucyl-methyloxirane], for which the melting point was 49.5 to 51.8 °C.

The molecule `CSC[C@@H](NC(=O)c1cc(C)on1)C(=O)N[C@H](CSC)C(=O)N[C@@H](Cc1ccccc1)C(=O)[C@@]1(C)CO1` [Compound 47, N-5-methylisoxazolyl-3-formyl-S-methyl-L-cysteinyl-S-methyl-L-cysteinyl-L-phenylalanyl-methyloxirane] yielded a melting point of 149 to 150 °C. For `CSC[C@@H](NC(=O)c1cnc(C)s1)C(=O)NCC(=O)N[C@@H](CC(C)C)C(=O)[C@@]1(C)CO1` [Compound 56, N-2-methylthiazolyl-5-formyl-S-methyl-L-cysteinyl-glycyl-L-leucyl-methyloxirane], the IC50 in series [2] was more than 100 nM.

Regarding `CSC[C@@H](NC(=O)c1cnc(C)s1)C(=O)N[C@H](CSC)C(=O)N[C@@H](Cc1ccccc1)C(=O)[C@@]1(C)CO1` [Compound 49, N-2-methylthiazolyl-5-formyl-S-methyl-L-cysteinyl-S-methyl-L-cysteinyl-L-phenylalanyl-methyloxirane], the melting point was in the range of 73 to 74 °C. For the molecule `COC[C@H](NC(=O)c1cnc(C)s1)C(=O)N[C@@H](COC)C(=O)N[C@@H](Cc1ccccc1)C(=O)[C@@]1(C)CO1` [Oprozomib, reference compound], the results for the IC50 in series [3] (setting [6]) and in series [3] (setting [7]) were 53 nM and 70.9 nM, respectively. The IC50 at 24 h came to 598 nM in series [4] (setting [8]) and 807 nM in series [4] (setting [9]). Regarding `COC[C@H](NC(=O)c1cc(C)on1)C(=O)NCC(=O)N[C@@H](Cc1ccccc1)C(=O)[C@@]1(C)CO1` [Compound 51, N-5-methylisoxazolyl-3-formyl-O-methyl-L-seryl-glycyl-L-phenylalanyl-methyloxirane], the melting point lay within 54 to 55 °C. In addition, in series [3] (setting [6]), the IC50 was 36 nM. Moreover, in series [3] (setting [7]), the IC50 was 52.6 nM.

As for `COC[C@H](NC(=O)CNC(=O)c1cc(C)on1)C(=O)N[C@@H](CC(C)C)C(=O)[C@@]1(C)CO1` [Compound 52, N-5-methylisoxazolyl-3-formyl-glycyl-O-methyl-L-seryl-L-leucyl-methyloxirane], the IC50 in series [2] was more than 100 nM.

In turn, `CSC[C@@H](NC(=O)c1cnccn1)C(=O)N[C@H](CSC)C(=O)N[C@@H](Cc1ccccc1)C(=O)[C@@]1(C)CO1` [Compound 48, N-pyrazinyl-2-formyl-S-methyl-L-cysteinyl-S-methyl-L-cysteinyl-L-phenylalanyl-methyloxirane] had an IC50 in series [5] of more than 2000 nM. `COC[C@H](NC(=O)[C@@H](CSC)NC(=O)c1cnccn1)C(=O)N[C@@H](Cc1ccccc1)C(=O)[C@@]1(C)CO1` [Compound 41, N-pyrazinyl-2-formyl-S-methyl-L-cysteinyl-O-methyl-L-seryl-L-phenylalanyl-methyloxirane] yielded a melting point of 49.7 to 51.2 °C. The IC50 in series [1] stood at 160 nM. Besides, in series [2], the IC50 was 55.3 nM.

`CSC[C@@H](NC(=O)c1cc(C)on1)C(=O)NCC(=O)N[C@@H](CC(C)C)C(=O)[C@@]1(C)CO1` [Compound 54, N-5-methylisoxazolyl-3-formyl-S-methyl-L-cysteinyl-glycyl-L-leucyl-methyloxirane] gave a melting point of 58.4 to 59.8 °C. Turning to `COC[C@H](NC(=O)[C@@H](CSC)NC(=O)c1cnccn1)C(=O)N[C@@H](CC(C)C)C(=O)[C@@]1(C)CO1` [Compound 38, N-pyrazinyl-2-formyl-S-methyl-L-cysteinyl-O-methyl-L-seryl-L-leucyl-methyloxirane], the melting point lay within 59.6 to 61.2 °C. Moreover, in series [5], the IC50 was more than 2000 nM.

Regarding `COC[C@H](NC(=O)[C@@H](CSC)NC(=O)c1cc(Cl)ccc1Cl)C(=O)N[C@@H](Cc1ccccc1)C(=O)[C@@]1(C)CO1` [Compound 39, N-2,5-dichlorophenyl-2-formyl-S-methyl-L-cysteinyl-O-methyl-L-seryl-L-phenylalanyl-methyloxirane], the melting point lay in the range of 51.2 to 52.7 °C. Still for that read-out and setting: then `COC[C@H](NC(=O)c1cnccn1)C(=O)N[C@H](CSC)C(=O)N[C@@H](Cc1ccccc1)C(=O)[C@@]1(C)CO1` [Compound 35, N-pyrazinyl-2-formyl-O-methyl-L-seryl-S-methyl-L-cysteinyl-L-phenylalanyl-methyloxirane], with 46.1 to 47.6 °C. `CSC[C@@H](NC(=O)c1cc(Cl)ccc1Cl)C(=O)N[C@H](CSC)C(=O)N[C@@H](CC(C)C)C(=O)[C@@]1(C)CO1` [Compound 42, N-2,5-dichlorophenyl-2-formyl-S-methyl-L-cysteinyl-S-methyl-L-cysteinyl-L-leucyl-methyloxirane] had a melting point of 163.1 to 164.5 °C. Regarding `COC[C@H](NC(=O)c1cc(C)on1)C(=O)NCC(=O)N[C@@H](CC(C)C)C(=O)[C@@]1(C)CO1` [Compound 50, N-5-methylisoxazolyl-3-formyl-O-methyl-L-seryl-glycyl-L-leucyl-methyloxirane], the melting point lay in the range of 47.7 to 49.1 °C. For the same molecule, the IC50 in series [3] (setting [6]) worked out at 10 nM. Further, in series [3] (setting [7]), the IC50 was determined as 11 nM. Besides, the IC50 at 24 h in series [4] (setting [8]) is more than 2000 nM. Further, the IC50 at 24 h in series [4] (setting [9]) is more than 2000 nM.
